Data set [1] has as its target T1, Amino acid transporter (Rattus norvegicus) (UniProt Q9Z1J7).
T1 sequence (whole entry): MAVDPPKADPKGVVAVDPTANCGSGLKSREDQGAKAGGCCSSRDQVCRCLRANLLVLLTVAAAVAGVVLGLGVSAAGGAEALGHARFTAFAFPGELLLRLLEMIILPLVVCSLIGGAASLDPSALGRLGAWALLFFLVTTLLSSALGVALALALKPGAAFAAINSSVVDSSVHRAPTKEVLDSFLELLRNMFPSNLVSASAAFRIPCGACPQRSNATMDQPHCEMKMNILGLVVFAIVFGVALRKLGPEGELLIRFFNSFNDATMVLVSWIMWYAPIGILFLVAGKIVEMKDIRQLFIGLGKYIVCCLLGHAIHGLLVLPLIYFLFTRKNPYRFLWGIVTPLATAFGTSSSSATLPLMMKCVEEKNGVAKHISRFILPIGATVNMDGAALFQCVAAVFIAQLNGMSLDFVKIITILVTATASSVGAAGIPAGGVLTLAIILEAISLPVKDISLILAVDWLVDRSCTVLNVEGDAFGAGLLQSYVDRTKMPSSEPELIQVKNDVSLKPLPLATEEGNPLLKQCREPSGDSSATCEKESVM
Put plainly: Inhibition of ASCT2 mediated [3H]-D-serine uptake in rat hippocampal astrocytes at 1 mM after 5 mins by beta counting analysis. It counts as cell-based.

Data set [2] deals with T2, Glutamate NMDA receptor (Rattus norvegicus) (UniProt P35439+Q00959+Q00960+Q00961+Q62645+Q8VHN2+Q9R1M7). Put plainly: Potentiation of NMDA receptor mediated excitatory post-synaptic currents in the CA1 region of rat hippocampal slices upto 1 hr by whole-cell patch-clamp assay. On the technique in general: The patch-clamp technique gives a direct electrical read-out from membranes.

Data set [3] relates to Rattus norvegicus. Put plainly: Antipsychotic activity in rat model of schizophrenia assessed as […] in prepulse inhibition at 600 mg/kg. It counts as functional, organism-based.
Data set [4] deals with Rattus norvegicus. Put plainly: Effect on absolute startle response in rat model of schizophrenia at 600 mg/kg. The data set is classed as ADME, organism-based. The note with it: in vivo.
For data set [5], the species on record is Rattus norvegicus. Put plainly: Inhibition of D-serine transporter in Sprague-Dawley rat visual cortex assessed as LTP threshold after 15 mins.
Data set [6] concerns Mus musculus. Put plainly: Reduction in amphetamine-induced hyperactivity in systemically dosed C57B/6 mouse model of schizophrenia administered at 30 mins after habituation in open field apparatus followed by amphetamine injection measured for 1 hr post dose. It counts as functional, organism-based.
In data set [7] the test system is Mus musculus. Put plainly: Reduction in amphetamine-induced hyperactivity in C57B/6 mouse model of schizophrenia at 0.3 mg/kg, ip administered at 30 mins after habituation in open field apparatus followed by amphetamine injection measured for 1 hr post dose. The data set is classed as functional, organism-based.
Data set [8] addresses T1, Amino acid transporter (Rattus norvegicus). Put plainly: Inhibition of ASCT2 in rat hippocampal astrocytes assessed as reduction in [3H]-D-serine uptake in presence of L-t-40HPro after 5 mins by beta counting analysis. The data set is classed as cell-based.
The species named for data set [9] is Rattus norvegicus. Put plainly: Inhibition of D-serine transporter in rat hippocampal slices assessed as increase in LTP at 100 uM.
Data set [10] deals with Mus musculus. Put plainly: Reduction in amphetamine-induced hyperactivity in C57B/6 mouse model of schizophrenia at 1 mg/kg administered at 30 mins after habituation in open field apparatus followed by amphetamine injection measured for 1 hr post dose. The data set is classed as functional, organism-based.
Data set [11] addresses T2, Glutamate NMDA receptor (Rattus norvegicus). Put plainly: Activation of NMDA receptor in rat visual cortex assessed as increase in theta burst stimulation of LTP after 15 mins followed by LTP induction in presence of DAAO by electrophysiological assay.
Data set [12] relates to Rattus norvegicus. Put plainly: Antipsychotic activity in rat model of schizophrenia assessed as […] in prepulse inhibition at 15 mg/kg. The data set is classed as functional, organism-based.
Data set [13] addresses T2, Glutamate NMDA receptor (Rattus norvegicus). Put plainly: Potentiation of NMDA receptor mediated excitatory post-synaptic currents in the CA1 region of rat hippocampal slices after 1 hr by electrophysiological assay.
The test system of data set [14] is Rattus norvegicus. Put plainly: Effect on absolute startle response in rat model of schizophrenia at 15 mg/kg. The data set is classed as ADME, organism-based. The note with it: in vivo.
Data set [15] addresses T2, Glutamate NMDA receptor (Rattus norvegicus). Put plainly: Activation of NMDA receptor in rat visual cortex assessed as increase in theta burst stimulation of LTP after 15 mins followed by LTP induction by electrophysiological assay.
The target in data set [16] is T1, Amino acid transporter (Rattus norvegicus). Put plainly: Inhibition of ASCT2 in rat hippocampal astrocytes assessed as reduction in [3H]-D-serine uptake in presence of L-glutamine after 5 mins by beta counting analysis. The data set is classed as cell-based.

Activity calls are given as the source filed them.

Among the data in ChEMBL document CHEMBL3991947, “D-serine transporter inhibitors as pharmaceutical compositions for the treatment of central nervous system disorders” (2014) are inhibition and Activity values, retold here.

For the compound `N[C@H](CO)C(=O)O` [(D)-SERINE], in [1], the inhibition – broadly, the relative decrease from the control value, in per cent – was greater than 25%. In addition, the result (in data set [2]; in the data set on Rattus norvegicus [3]) was inactive. The Activity entry in the data set with Rattus norvegicus [4] was “Non-Toxic”; in the data set filed under Rattus norvegicus [5] it was 3 µM.

Turning to `N[C@H](C(=O)O)c1ccc(F)cc1`, the inhibition in data set [1] was greater than 25%. Further, in [2], the outcome was inactive. The Activity result in the data set on Mus musculus [6] was “Dose-dependent effect”; in the data set listed under Rattus norvegicus [5], 0.3 µM. Also, the result in the data set with Mus musculus [7] was Active.

Compound `N[C@@H](CSc1ccccc1)C(=O)O` registered an inhibition in [1] greater than 25%. Besides, the outcome in data set [2] was inactive.

Regarding `N[C@@H](CSCc1ccccc1)C(=O)O`, the inhibition in data set [1] was greater than 25%. The result in data set [2] was inactive.

Turning to `NC(=O)C[C@H](N)C(=O)O`, in data set [1], the inhibition is greater than 25%. Also, the result in data set [2] was inactive. The Activity in the data set listed under Rattus norvegicus [5] turned out to be 3 µM.

For `N[C@@H](CO)C(=O)O`, the inhibition in data set [1] was greater than 25%. Besides, the outcome in data set [2] was inactive.

`N[C@@H](CCC(=O)OCc1ccccc1)C(=O)O`: the outcome in data set [2] was inactive.

In data set [1], `NC(=O)CC[C@H](N)C(=O)O` gave an inhibition greater than 25%. Besides, the outcome in [2] was inactive. The inhibition entry in [8] was “Active”.

For the compound `O=C(O)[C@@H]1CCN1`, in data set [1], the inhibition is greater than 25%.

Compound `NC(C(=O)O)c1ccc(CO)c(O)c1` (stereo not given) gave an inhibition in data set [1] greater than 25%.

Consider `CSC[C@H](N)C(=O)O`, for which the inhibition in data set [1] is greater than 25%.

`O=C(/C=C/c1c(C(=O)O)[nH]c2cc(Cl)cc(Cl)c12)Nc1ccccc1` returned an inhibition in data set [1] greater than 25%.

As to `O=C(O)[C@@H]1CCCN1`, in [1], the inhibition was greater than 25%. Besides, the result in [2] was inactive.

On to `NC(Cc1c[nH]c2cc(F)ccc12)C(=O)O` (stereo not given), for which the inhibition in data set [1] was greater than 25%.

Regarding `N[C@@H](CC1CCCC1)C(=O)O`, in data set [1], the inhibition was greater than 25%.

In turn, `O=C(Nc1ccc2ccccc2c1)[C@@H]1CCCN1` yielded an inhibition in data set [1] greater than 25%.

On to `NC(C(=O)O)C(O)c1cccs1` (racemic), for which the inhibition in data set [1] was greater than 25%.

In the case of `NC(C(=O)O)c1cccc(Br)c1` (stereo not given), the inhibition in data set [1] was greater than 25%.

`O=C(O)C1C[C@@H](Cc2ccccc2I)CN1` (single isomer, unassigned) displayed an inhibition in data set [1] greater than 25%.

`CNC[C@H](N)C(=O)O` showed an inhibition in [1] greater than 25%.

Compound `O=C(O)[C@H]1C[C@@H](F)CN1` gave an inhibition in [1] greater than 25%.

Turning to `CC(O)[C@H](C)[C@H](N)C(=O)O` (stereo not given in full), the inhibition in data set [1] was greater than 25%.

In data set [1], `O=C(O)[C@@H]1C[C@@H](F)CN1` had an inhibition greater than 25%.

Regarding `NC(C(=O)O)c1cccc(C(F)(F)F)c1` (stereo not given), the inhibition in data set [1] was greater than 25%.

The compound `N[C@@H](Cn1oc(=O)[nH]c1=O)C(=O)O` had an inhibition in data set [1] greater than 25%.

Regarding `O=C(O)C1C[C@@H](Cc2ccc(Cl)cc2)CN1` (single isomer, unassigned), in data set [1], the inhibition is greater than 25%.

In data set [1], `O=C(O)C1C[C@@H](Cc2ccccc2F)CN1` (single isomer, unassigned) had an inhibition greater than 25%.

In [1], `NC(C(=O)O)c1ccc2c(c1)OCO2` (stereo not given) returned an inhibition greater than 25%.

In [1], `N[C@H](C(=O)O)c1cccc2ccccc12` gave an inhibition greater than 25%.

Regarding `N[C@@H](CC1CC1)C(=O)O`, the inhibition in data set [1] is greater than 25%.

As for `[N-]=[N+]=CC(=O)CC[C@H](N)C(=O)O`, the inhibition in data set [1] is greater than 25%.

`C[C@H]1CCN[C@@H]1C(=O)O`: the inhibition in data set [1] is greater than 25%.

Regarding `NC(C(=O)O)c1ccccc1F` (stereo not given), in data set [1], the inhibition was greater than 25%. Also, the result in [2] was inactive. For the same compound, the Activity in the data set filed under Rattus norvegicus [5] was greater than 300 µM.

`CC(C)(C)OC(=O)N1C[C@H](C/C=C/c2ccccc2)C[C@H]1C(=O)O`: in [1], the inhibition is greater than 25%.

The compound `N[C@@H](CCO)C(=O)O` yielded an inhibition in data set [1] greater than 25%.

With `CC(C)[C@H](N)C(=O)O`, in data set [1], the inhibition was greater than 25%.

On to `NC(CC(=O)c1ccccc1)C(=O)O` (stereo not given), for which, in data set [1], the inhibition is greater than 25%.

With `N[C@H](C(=O)O)c1ccccc1`, the inhibition in [1] is greater than 25%. The result in [2] was inactive. The Activity in the data set filed under Rattus norvegicus [5] was 10 µM.

With `NC1(C(=O)O)CCCC1`, the inhibition in data set [1] is greater than 25%.

For the compound `O=C(O)C1C[C@@H](Cc2ccsc2)CN1` (single isomer, unassigned), the inhibition in data set [1] was greater than 25%.

Consider `N[C@@H](C(=O)O)C1=CCC=CC1`, for which the inhibition in data set [1] was greater than 25%.

`N[C@@H](Cc1c[nH]c2ccccc12)C(=O)O` registered an inhibition in [1] greater than 25%.

With `Cc1ccccc1[C@H](N)C(=O)O`, the inhibition in [1] is greater than 25%.

`O=C(O)[C@@H]1NCC[C@H]1Cc1ccccc1`: in data set [1], the inhibition is greater than 25%.

With `COc1ccc(C(N)C(=O)O)cc1` (stereo not given), the inhibition in [1] is greater than 25%.

In the case of `O=C(O)C1C[C@@H](Cc2ccc([N+](=O)[O-])cc2)CN1` (single isomer, unassigned), in data set [1], the inhibition is greater than 25%.

Compound `N[C@@H](CCC(=O)Nc1ccc([N+](=O)[O-])cc1)C(=O)O` yielded an inhibition in [1] greater than 25%. The outcome in data set [2] was inactive. Also, in the data set listed under Rattus norvegicus [9], the inhibition entry is “Active”. Further, the Activity in the data set filed under Rattus norvegicus [5] was 100 µM.

With `CC[C@H](N)C(=O)O`, the inhibition in data set [1] is greater than 25%.

`O=C(O)C1C[C@@H](Cc2ccc(F)c(F)c2)CN1` (single isomer, unassigned) returned an inhibition in [1] greater than 25%.

As for `C[C@@H](O)[C@@H](N)C(=O)O` (racemic), the inhibition in data set [1] is greater than 25%.

Consider `NC(C(=O)O)C12CC3CC(CC(C3)C1)C2` (stereo not given), for which the inhibition in [1] was greater than 25%.

Regarding `O=C(O)C1C[C@@H](Cc2ccc(I)cc2)CN1` (single isomer, unassigned), the inhibition in [1] was greater than 25%.

For the compound `O=C(O)[C@@H]1C[C@@H](Cc2ccc(Cl)cc2Cl)CN1`, in the data set on Mus musculus [10], the result was Active.

`CCOC(=O)CC(N)C(=O)O` (stereo not given): the inhibition in [1] was greater than 25%.

Turning to `O=C(O)[C@@H]1C[C@@H](Oc2cccc(Cl)c2)CN1`, the inhibition in data set [1] was greater than 25%.

On to `N[C@H](C(=O)O)c1ccc(O)cc1` [OXFENICINE], for which, in data set [1], the inhibition is greater than 25%. For the same compound, the Activity result in [2] was “Dose-dependent effect”; in the data set with Rattus norvegicus [14], “Non-Toxic”; in the data set listed under Rattus norvegicus [5], 10 µM; in data set [15], “Dose-dependent effect”. In addition, the outcome in data set [11] and in data set [13] was inactive. For the same compound, the outcome in the data set with Rattus norvegicus [12] was Active.

In [1], `O=C(O)[C@@H]1C[C@H](Cc2ccccc2)CN1` had an inhibition greater than 25%.

The compound `O=C(O)[C@@H]1C[C@@H](Cc2ccccn2)CN1` had an inhibition in data set [1] greater than 25%.

Take `NC(C(=O)O)c1ccc(F)c(F)c1` (stereo not given): in [1], the inhibition is greater than 25%.

For `COCC(N)C(=O)O` (racemic), the inhibition in data set [1] is greater than 25%.

In data set [1], `O=C(O)C1C[C@@H](Cc2ccccc2Cl)CN1` (single isomer, unassigned) gave an inhibition greater than 25%.

On to `COC(=O)CC[C@H](N)C(=O)O`, for which the inhibition in [1] was greater than 25%.

In [1], `N[C@H](C(=O)O)C1CC1` showed an inhibition greater than 25%. The Activity in the data set filed under Rattus norvegicus [5] worked out at 1 µM.

`O=C(O)[C@@H]1C[C@@H](O)CN1` showed an inhibition in [1] greater than 25%. Further, the outcome in data set [2] was inactive. In addition, the Activity in the data set listed under Rattus norvegicus [5] came to 3 µM. The inhibition entry in data set [16] was “Active”.

`[N-]=[N+]=NCC[C@H](N)C(=O)O` came in with an inhibition in [1] greater than 25%.

In turn, `Cc1cc(C(N)C(=O)O)ccc1F` (stereo not given) came in with an inhibition in data set [1] greater than 25%.
